Consider eleven compounds from patent US8828695B2, “Method for producing butanol using two-phase extractive fermentation” (Butamax Advanced Biofuels LLC, priority 2008, dated 2014).

Structures are written as SMILES.

Type in all cases: cell-based
The test system of experiment [1] is Saccharomyces cerevisiae BY4741. The experiment can be described thus: Growth of Saccharomyces cerevisiae in the presence of isobutanol and oleyl alcohol (shake flask). The procedure:
The glucose consumption rate and the growth rate of wild-type Saccharomyces cerevisiae BY4741 strain were measured in shake flask cultures containing a high concentration of isobutanol in the presence of oleyl alcohol (Example 2) and the absence of oleyl alcohol (Example 3, Comparative).
Three seed shake flasks containing 600 mL of YPD medium were inoculated with 100, 300, and 1000 μL of Saccharomyces cerevisiae BY4741 inoculum, respectively. The flasks were incubated overnight at 30° C. with shaking at 250 rpm until the OD600 reached about 0.1. Samples were withdrawn from each culture and the OD600 and glucose concentration were measured as described above.
(§1) To a 125 mL flask was added 100 mL of the culture which was derived from the 300 μL inoculum (Example 3, Comparative). To another 125 mL flask was added 75 mL of the culture and 25 mL of oleyl alcohol (i.e., 25 vol %) (Example 2). The flasks were incubated at 30° C. with shaking at 100 rpm. Samples were withdrawn for OD600 and glucose measurement. When the OD600 reached about 0.4, isobutanol was added to both flasks to a final concentration of 30 g/L of the aqueous phase. A third flask containing 75 mL of the culture and 25 vol % of oleyl alcohol, but no added isobutanol, served as a positive control. Samples were withdrawn from all flasks at various times for the determination of OD600 and glucose concentration.

The test system of experiment [2] is Lactobacillus plantarum strain PN0512. Kind of experiment: Growth of Lactobacillus plantarum in the presence of isobutanol and oleyl alcohol (shake flask). Here is the method: The glucose consumption rate and the growth rate of Lactobacillus plantarum strain PN0512 were measured in shake flask cultures containing a high concentration of isobutanol in the presence of oleyl alcohol (Example 4) and the absence of oleyl alcohol (Example 5, Comparative).
Three seed shake flasks containing 50 mL of de Man-Rogosa-Sharpe (MRS) medium were inoculated with 200, 500, and 1000 μL, respectively, of Lactobacillus plantarum strain PN0512 inoculum (ATCC: PTA-7727, biological deposit made Jul. 12, 2006 for U.S. patent application Ser. No. 11/761,497). The flasks were incubated overnight at 30° C. with shaking at 250 rpm until the OD600 was between 2 and 5. A 1-L flask containing 600 mL of MRS medium was inoculated from one of the above seed flasks having an OD600=3 to an initial OD600=0.1 and cultivated at 30° C. with shaking at 180 rpm. After 4 to 5 hours of cultivation, the OD600 was between 0.5 and 1.0. Samples were withdrawn from each culture and the OD600 and glucose concentration were measured as described above.
as §1, with “culture” for “culture which was derived”, “above mentioned 1-L flask” for “300 μL inoculum”, “1.5,” for “0.4,”

For experiment [3], the system named is Saccharomyces cerevisiae BY4741. Kind of experiment: Biocompatibility of solvents, shake flask studies (OD600 and glucose). To be noted: for Biocompatibility of the solvent (growth and glucose utilization versus control without solvent): S. cerevisiae BY4741, 25 mL solvent per 100 mL; for Glucose / OD600: 75 mL seed culture + 25 mL solvent, 30° C. The procedure: The biocompatibility of each solvent was determined using shake flask studies with Saccharomyces cerevisiae BY4741 obtained from ATCC. Seed shake flasks containing 700 mL of yeast extract/peptone/dextrose (YPD) medium were inoculated with 200 μL of S. cerevisiae BY4741 inoculum and incubated overnight at 30° C. with shaking at 250 rpm until the OD600 reached about 0.5. Samples were withdrawn from the culture for measurement of OD600 using a spectrophotometer and glucose concentration using HPLC.
The resulting seed culture was divided into eight 125 mL flasks as follows. Into one flask, which served as a control, 100 mL of the seed culture was added. Into the remaining seven flasks, 75 mL of the seed culture and 25 mL of the solvent to be tested was added.

Where [4] appears, read: Time 3 h after isobutanol addition.
[5] abbreviates: Time 4 h after isobutanol addition.
[6] abbreviates: Time 5 h after isobutanol addition.
Where [7] appears, read: Time 14 h after isobutanol addition.
Setting [8] is: isobutanol 30 g/L in the absence of oleyl alcohol.
The mark [9] stands for this setting: 25 vol % oleyl alcohol, isobutanol 30 g/L.

For the compound `CCCCCCCC/C=C\CCCCCCCCO` [Control, oleyl alcohol], the Glucose stood at 19.7 g/L in experiment [1] (Time 0 h (isobutanol addition)); 16.0 g/L in experiment [1] (setting [4]); 12.9 g/L in experiment [1] (setting [5]); 9.2 g/L in experiment [1] (setting [6]); 0.3 g/L in experiment [1] (setting [7]); 12.9 g/L in experiment [2] (Time 0 h (isobutanol addition)). For the same compound, the Glucose in experiment [2] (setting [4]) is 7.4 g/L; in experiment [2] (setting [5]) it was 4.5 g/L; in experiment [2] (setting [6]) it was 1.9 g/L; in experiment [2] (setting [7]), 0 g/L. Moreover, the OD600 in experiment [1] (Time 0 h (isobutanol addition)) is given as 0.4; in experiment [1] (setting [4]) it was 0.6; in experiment [1] (setting [5]), 1.7; in experiment [1] (setting [6]), 2.5; in experiment [1] (setting [7]), 3.3; in experiment [2] (Time 0 h (isobutanol addition)), 5.6. In addition, the OD600 is recorded as 8.9 in experiment [2] (setting [4]), 10.4 in experiment [2] (setting [5]), 14.1 in experiment [2] (setting [6]) and 8.8 in experiment [2] (setting [7]).

Take `CC(C)CO` [Example 3, isobutanol]: the Glucose in experiment [1] (Time 0 h (isobutanol addition)) is given as 18.9 g/L; in experiment [1] (setting [4]) it was 17.5 g/L; in experiment [1] (setting [5]), 17.7 g/L; in experiment [1] (setting [6]) it was 17.4 g/L; in experiment [1] (setting [7]), 17.4 g/L. Further, the OD600 in experiment [1] (Time 0 h (isobutanol addition)) came to 0.4; in experiment [1] (setting [4]), 0.6; in experiment [1] (setting [5]), 0.7; in experiment [1] (setting [6]), 0.6; in experiment [1] (setting [7]) it was 0.6.

For the compound `CC(C)CO` [Example 5, isobutanol], the Glucose in experiment [2] (Time 0 h (isobutanol addition)) is 12.7 g/L; in experiment [2] (setting [4]) it was 11.7 g/L; in experiment [2] (setting [5]), 11.7 g/L; in experiment [2] (setting [6]), 11.7 g/L; in experiment [2] (setting [7]) it was 11.6 g/L. For the same compound, the OD600 in experiment [2] (Time 0 h (isobutanol addition)) was 5.7; in experiment [2] (setting [4]) it was 6.8; in experiment [2] (setting [5]) it was 6.9; in experiment [2] (setting [6]) it was 7.2; in experiment [2] (setting [7]) it was 5.3.

In the case of `CCCCCCCCCCO` [Solvent 1-decanol, 1-decanol], the “Biocompatibility of the solvent (growth and glucose utilization versus control without solvent)” value in experiment [3] was “inhibited growth and glucose utilization”. For the same compound, the Glucose in experiment [3] (t = 0) was 17.5 g/L; in experiment [3] (t = 2 h), 16.6 g/L; in experiment [3] (t = 4 h), 17.0 g/L; in experiment [3] (t = 6 h), 17.8 g/L; in experiment [3] (t = 24 h), 17.6 g/L. The OD600 in experiment [3] (t = 0) was determined as 0.5; in experiment [3] (t = 4), 0.7; in experiment [3] (t = 2 h), 0.5; in experiment [3] (t = 6 h), 0.6; in experiment [3] (t = 24 h) it was 0.8.

Take `CCCCCCCCCCCCO` [Solvent 1-dodecanol, 1-dodecanol]: the “Biocompatibility of the solvent (growth and glucose utilization versus control without solvent)” value in experiment [3] was “biocompatible”. Besides, the Glucose in experiment [3] (t = 0) amounted to 17.5 g/L; in experiment [3] (t = 2 h) it was 15.4 g/L; in experiment [3] (t = 4 h), 11.6 g/L; in experiment [3] (t = 6 h), 3.9 g/L; in experiment [3] (t = 24 h), 0.0 g/L. In addition, the OD600 was determined as 0.5 in experiment [3] (t = 0); 1.6 in experiment [3] (t = 4); 0.9 in experiment [3] (t = 2 h); 2.8 in experiment [3] (t = 6 h); 4.2 in experiment [3] (t = 24 h).

As for `CCCCCCCCC=O` [Solvent 1-nonanal, 1-nonanal], in experiment [3], the “Biocompatibility of the solvent (growth and glucose utilization versus control without solvent)” value was “inhibited growth and glucose utilization”. In addition, the Glucose is listed as 17.5 g/L in experiment [3] (t = 0); 16.6 g/L in experiment [3] (t = 2 h); 17.0 g/L in experiment [3] (t = 4 h); 17.8 g/L in experiment [3] (t = 6 h); 17.6 g/L in experiment [3] (t = 24 h). The OD600 in experiment [3] (t = 0) is given as 0.5; in experiment [3] (t = 4), 0.7; in experiment [3] (t = 2 h), 0.7; in experiment [3] (t = 6 h), 0.8; in experiment [3] (t = 24 h), 1.8.

For the compound `CC(C)CO` [isobutanol], the “Effect on glucose utilization and biomass growth” value in experiment [1] (setting [8]) is “almost completely inhibited glucose utilization and biomass growth”; in experiment [2] (setting [8]), “almost completely inhibited glucose utilization and biomass growth”.

With `CCCCCCCCCO` [nonanol, 1-nonanol], in experiment [3], the “Biocompatibility of the solvent (growth and glucose utilization versus control without solvent)” value was “inhibited growth and glucose utilization”. Moreover, the Glucose in experiment [3] (t = 0) is 17.5 g/L; in experiment [3] (t = 2 h), 17.0 g/L; in experiment [3] (t = 4 h), 16.9 g/L; in experiment [3] (t = 6 h) it was 18.1 g/L; in experiment [3] (t = 24 h) it was 17.8 g/L. In addition, the OD600 in experiment [3] (t = 0) was 0.5; in experiment [3] (t = 4) it was 0.7; in experiment [3] (t = 2 h) it was 0.5; in experiment [3] (t = 6 h) it was 0.6; in experiment [3] (t = 24 h), 0.7.

As for `CCCCCCCC(=O)O` [octanoic acid], in experiment [3], the “Biocompatibility of the solvent (growth and glucose utilization versus control without solvent)” value is “inhibited growth and glucose utilization”. For the same compound, the Glucose in experiment [3] (t = 0) is 17.5 g/L; in experiment [3] (t = 2 h) it was 17.1 g/L; in experiment [3] (t = 4 h) it was 17.6 g/L; in experiment [3] (t = 6 h) it was 19.2 g/L; in experiment [3] (t = 24 h), 18.5 g/L. The OD600 is reported as 0.5 in experiment [3] (t = 0); 0.8 in experiment [3] (t = 4); 0.9 in experiment [3] (t = 2 h); 0.7 in experiment [3] (t = 6 h); 1.0 in experiment [3] (t = 24 h).

In the case of `CCCCCCCC/C=C\CCCCCCCC(=O)O` [oleic acid], in experiment [3], the “Biocompatibility of the solvent (growth and glucose utilization versus control without solvent)” value was “biocompatible”. Further, the Glucose is recorded as 17.5 g/L in experiment [3] (t = 0), 19.0 g/L in experiment [3] (t = 2 h), 2.2 g/L in experiment [3] (t = 6 h) and 0.0 g/L in experiment [3] (t = 24 h). Further, the OD600 worked out at 0.5 in experiment [3] (t = 0); 1.7 in experiment [3] (t = 4); 0.8 in experiment [3] (t = 2 h); 2.8 in experiment [3] (t = 6 h); 4.4 in experiment [3] (t = 24 h).

For the compound `CCCCCCCC/C=C\CCCCCCCCO` [oleyl alcohol], the “Biocompatibility of the solvent (growth and glucose utilization versus control without solvent)” value in experiment [3] is “biocompatible”. For the same compound, the Glucose in experiment [3] (t = 0) came to 17.5 g/L; in experiment [3] (t = 2 h), 15.3 g/L; in experiment [3] (t = 4 h) it was 10.4 g/L; in experiment [3] (t = 6 h), 3.4 g/L; in experiment [3] (t = 24 h), 0.0 g/L. The OD600 in experiment [3] (t = 0) was determined as 0.5; in experiment [3] (t = 4), 2.0; in experiment [3] (t = 2 h), 1.0; in experiment [3] (t = 6 h) it was 2.4; in experiment [3] (t = 24 h) it was 3.5. In addition, the “Effect of oleyl alcohol on isobutanol toxicity” value in experiment [1] (setting [9]) and in experiment [2] (setting [9]) was “mitigates the toxicity of isobutanol” in each case.
